Target: T1, hen egg lysozyme (Gallus gallus, UniProt P00698)
T1 construct: from tissue; host or cells: hen egg
Assay: lysozyme denaturation/stabilization test: lysozyme activity on M. luteus suspension, optical density at 450nm
Format: biochemical
Details: Table 1, saline + 20 mM buffering agent
Protocol: Each solution included saline and 20 mM of buffering agent as specified in Table 1 below. To each test solution was added 1 mg/ml of hen egg lysozyme as well as a phosphate buffered saline (PBS) control. The test solutions were mixed slowly with a stir bar until the lysozyme was incorporated into the solutions. Five ml of each lysozyme-containing test solution was retained as the unheated control. The remaining 5 ml of each lysozyme-containing test solution were placed in glass less vials, capped with silicone stoppers and incubated in a shaking water bath at 80° C. 40 revolutions per minute (rpm) for 1 hour—these heating conditions are sufficient to denature the lysozyme, absent a stabilization effect provided by the buffering agents. The vials were allowed to come to ambient temperature before testing. A 0.00025 g/ml suspension of M. luteus was prepared from lyophilized cells in PBS. The suspension was continually mixed on a stir plate during the testing period to prevent the suspension from settling. For each set of test solutions, the following were tested (sample): a heated lysozyme-containing test solution (“lysozyme+heat”); an unheated lysozyme-containing test solution (“lysozyme/no heat”; and a test solution without lysozyme (“no lysozyme”). One ml of each sample was placed into a glass test tube to which 9 ml of M. luteus suspension was added and vortexed. A 1-ml sub sample was placed into a disposable cuvette and evaluated on a UV-vis spectrophotometer at 450nm. […] Each of the solutions were evaluated in triplicate. Each of the three optical density measurements from the triplicate samples were averaged.

[1] = lysozyme + heat (80° C., 1 hour)
[2] = lysozyme/no heat, 1 mg/ml lysozyme

T1 sequence (P00698 19-147): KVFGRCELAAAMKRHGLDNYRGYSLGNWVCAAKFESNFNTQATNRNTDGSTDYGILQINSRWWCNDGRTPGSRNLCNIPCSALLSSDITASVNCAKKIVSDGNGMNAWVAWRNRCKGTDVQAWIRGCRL

Molecule	Time 0 Min (optical density, 450nm) [1]	Percent Change 5 Min [1] [%]	Time 5 Min (optical density, 450nm) [1]	Percent Change 10 Min [1] [%]	Time 10 Min (optical density, 450nm) [1]	Time 0 Min (optical density, 450nm) [2]	Percent Change 5 Min (lysozyme/no heat) [%]	Time 5 Min (optical density, 450nm) (lysozyme/no heat)	Percent Change 10 Min (lysozyme/no heat) [%]	Time 10 Min (optical density, 450nm) (lysozyme/no heat)	Time 0 Min (optical density, 450nm) (no lysozyme)	Percent Change 5 Min (no lysozyme) [%]	Time 5 Min (optical density, 450nm) (no lysozyme)	Percent Change 10 Min (no lysozyme) [%]	Time 10 Min (optical density, 450nm) (no lysozyme)
O=C(O)CC(O)(CC(=O)O)C(=O)O [Citrate]	0.877	2.96	0.851	10.49	0.785	0.654	92.51	0.049	95.41	0.030	0.857	0.82	0.850	0.82	0.850
NC(CO)(CO)CO [Tris, 2-amino-2-hydroxymethyl-1,3-propanediol]	0.810	80.99	0.154	85.56	0.117	0.654	92.66	0.048	95.72	0.028	0.859	0.58	0.854	0.58	0.854
Borate	0.872	21.90	0.681	55.28	0.390	0.619	91.44	0.053	94.51	0.034	0.853	0.00	0.853	−0.12	0.854
Phosphate	0.861	0.34	0.858	1.05	0.852	0.634	91.80	0.052	95.43	0.029	0.856	0.47	0.852	0.23	0.854

Reference: patent US20030153475A1, “Composition for treating contact lenses” (priority 2001, published 2003)
